Tests used:
[1] = 3 g high THC strain; 200 ml ethanol concentrated to about 3 ml
[2] = system: bovine γ-globulin; assay: Cannabis vapor streamed through protein solution, cannabinoids adsorbed (Example 1f); assay type: binding; settings: vapor of cannabis high in CBD; 1 mg/ml protein, ethanol:water 1:2, 30° C., 24 hours
Method: (§1) The protein solutions were formed using ethanol and water in a 1:2 ratio. The solutions were incubated at 30° C. for 24 hours.

[3] = biological target: T1, rice recombinant human serum albumin (HSA) (Homo sapiens, UniProt P02768); assay: as above; assay type: binding; settings: vapor of cannabis high in CBD; 1 mg/ml protein, ethanol:water 1:2, 30° C., 24 hours
T1 construct: host or cells: rice (recombinant expression host)
Method: as §1

[4] = biological target: T2, ovalbumin (hen) (Gallus gallus, UniProt P01012); assay: as above; assay type: binding; settings: vapor of cannabis high in CBD; 1 mg/ml protein, ethanol:water 1:2, 30° C., 24 hours
T2 sequence (P01012 1-386): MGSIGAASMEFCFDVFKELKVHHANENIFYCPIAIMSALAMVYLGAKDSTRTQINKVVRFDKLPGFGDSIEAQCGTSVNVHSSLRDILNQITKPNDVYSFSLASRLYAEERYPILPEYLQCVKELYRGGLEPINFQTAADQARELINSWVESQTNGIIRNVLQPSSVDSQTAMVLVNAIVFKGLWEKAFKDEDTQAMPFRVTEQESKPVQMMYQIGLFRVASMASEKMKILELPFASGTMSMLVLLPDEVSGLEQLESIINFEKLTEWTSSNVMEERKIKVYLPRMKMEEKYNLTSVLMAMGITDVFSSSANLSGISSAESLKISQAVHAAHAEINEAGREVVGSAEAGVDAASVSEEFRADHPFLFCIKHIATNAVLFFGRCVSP
Method: as §1

[5] = biological target: T3, bovine serum albumin (BSA) (Bos taurus, UniProt P02769); assay: Cannabis smoke bubbled through aqueous BSA solution, cannabinoids determined by HPLC (Example 1a); assay type: binding; settings: BSA in Hartmann's solution; FIG. 2A
T3 construct: purchased Millipore, USA
Method: Protein-bound cannabinoid was formed according to the following method. An aqueous albumin solution was prepared by adding 20 (mg)) of bovine serum albumin (BSA, from Millipore, USA) to 10 milliliters (ml) ml Hartmann's solution (B. Braun Melsungen AG, Germany). BSA was completely dissolved using a shaker (Heidolph POLYMAX 1040) at 50 revolutions per minute.
A cannabis-filled cigarette was formed using a cigarette paper containing 0.8 gr ground cannabis (provided by “Seach” Israel), from flowers and budding leaves. A Pasteur pipette was cut longitudinally at its wide end, and the cigarette was lodged in to the cut end. The narrow end of the pipette was attached to a syringe. The cigarette was lit in a fume hood, and cigarette smoke was collected in the syringe by pulling the syringe plunger. The smoke was then slowly released into the BSA solution by depressing the plunger. Approximately 350 ml of smoke-containing air was gently bubbled through the BSA solution.
As a control, a solution of 10 ml of Hartmann's solution was prepared without the addition of BSA and a similar procedure of cannabis smoke formation and bubbling was performed.
Samples having a volume of 3 ml of the BSA solution and the control solution were each inserted in to HPLC glass vials and the open vials were inserted into a vacuum oven for 24 hours at 37° Celsius.
The solid phase after the evaporation was crushed in to a fine powder using mortar and pestle. The powder was extracted using Methanol chloroform 9:1 extract solution, sonicated for 30 minutes, and was then filtered and added in to an HPLC testing tube.
HPLC was performed using an HP1050 AGILENT, DAD detector, XBridge C18 3.5 μm 4.6×150 mm column, and according to the following parameters: […]

[6] = biological target: T4, BSA (Bos taurus, UniProt P02769); assay: Cannabis extract combined with albumin solution, cannabinoids adsorbed to BSA (Example 2a); assay type: binding, bovine; settings: albumin solution 10 mg/ml (BSA) with 20% ethanol, 2 hours at room temperature
Method: (§2) Cannabis extract was prepared as follows: In short, cannabis plant matter is dried, ground and homogenized to form ground cannabis. The ground cannabis is extracted with methanol/chloroform (volume/volume ratio of 9:1). Sonication and filtration is then performed. Identity of cannabinoids is determined by HPLC by evaporation, dissolution in an appropriate solvent.
(§3) Drying of the cannabis plant matter occurs under high vacuum at about 37±2° C. for about 24 hours and then ground to form a fine powder. 200 mg of ground powder is combined with 10 ml of methanol/chloroform, and sonicated in an ice bath for 30 minutes at maximum power. The supernatant is then filtered through a 0.2 micron filter.
(§4) A sample of the cannabis extract was analyzed for content of cannabinoids. The cannabis extract was then combined with albumin solution having 20% ethanol at 10 mg/ml (BSA) and incubated for 2 hours at room temperature.

[7] = biological target: T4, BSA; assay: Cannabis smoke/vapor passed through BSA/water/ethanol solution, cannabinoid profile (Example 1d); assay type: binding, bovine; settings: 33% ethanol, 48 hours incubation, washed
Method: (§5) To show which cannabinoid compounds are solubilized in processes using BSA versus organic solvents, cannabis from two different batches was smoked and or vaporized. Vapor was formed using a “volcano” vaporizer at a temperature of 210° C. The smoke/vapor was passed through either a BSA/water/ethanol solution described in example 1b, comprising 33% by volume ethanol or through a pure ethanol (99% ethanol) solution. Solutions were stirred using a magnetic stirrer and were incubated for 48 hours, during which time, most of the ethanol evaporated. One of the batches of cannabis was high in THC, and the other batch of cannabis was high in both THC and CBD.
The BSA/water/ethanol solution was washed after smoke or vapor was combined with it, and the amount of cannabinoids present was analyzed. The results of the comparison of relative concentration of cannabinoids (relative to total cannabinoid content) as expressed in percent (weight/weight), for a strain of cannabis high in THC are shown in the table below.

[8] = biological target: albumin (BSA) (Bos taurus, UniProt P02769); assay: Ethanolic cannabinoid solution mixed with aqueous albumin, protein-bound cannabinoid quantified (Example 2b); assay type: binding, bovine; design: protein-bound cannabinoid quantified, Vapor: unit not given beside the values; settings: 100 microliters ethanolic solution + 500 microliters 5 mg/ml BSA, 30° C., 12 hours, non-adsorbed cannabinoids separated
Method: 100 microliters of ethanolic cannabinoid solution from cannabis vapor and cannabis smoke were each mixed with 500 microliters of aqueous albumin solution that had been prepared at a concentration of 5 mg albumin (BSA)/ml. The aqueous albumin solution combined with the ethanolic cannabinoid solution was incubated at 30° C. for 12 hours in open tubes. After 12 hours, the tubes were mixed and centrifuged, and non-adsorbed cannabinoids were separated from the solution. Concentrated protein-bound cannabinoid was dried and quantified as described below.

[9] = Cannabinoid content of cannabis extract (Example 2a); assay type: physicochemical; settings: methanol/chloroform 9:1 cannabis extract
Method: as §2, §3, §4

[10] = Cannabis smoke/vapor passed through pure ethanol, cannabinoid profile (Example 1d); assay type: physicochemical; settings: for relative concentration of cannabinoids (relative to total cannabinoid content), Vapor passed through ethanol: vapor at 210° C.
Method: as §5

[11] = strain of cannabis high in CBD and THC

T1 sequence (P02768 25-609): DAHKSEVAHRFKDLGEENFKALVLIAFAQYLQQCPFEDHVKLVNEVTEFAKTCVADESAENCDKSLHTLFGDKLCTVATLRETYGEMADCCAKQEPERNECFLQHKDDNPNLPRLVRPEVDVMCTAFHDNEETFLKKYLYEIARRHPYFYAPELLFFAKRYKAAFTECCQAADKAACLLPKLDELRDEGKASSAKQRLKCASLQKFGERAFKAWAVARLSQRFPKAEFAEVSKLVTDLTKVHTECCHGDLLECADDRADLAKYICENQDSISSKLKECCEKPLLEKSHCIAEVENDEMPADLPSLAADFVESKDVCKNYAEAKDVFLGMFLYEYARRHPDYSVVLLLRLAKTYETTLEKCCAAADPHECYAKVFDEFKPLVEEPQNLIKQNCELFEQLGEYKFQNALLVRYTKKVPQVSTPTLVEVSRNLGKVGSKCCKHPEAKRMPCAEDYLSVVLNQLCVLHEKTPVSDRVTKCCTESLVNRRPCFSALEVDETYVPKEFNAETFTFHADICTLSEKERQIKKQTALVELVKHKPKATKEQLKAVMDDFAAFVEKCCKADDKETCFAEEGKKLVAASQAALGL
T3 sequence (P02769 25-607): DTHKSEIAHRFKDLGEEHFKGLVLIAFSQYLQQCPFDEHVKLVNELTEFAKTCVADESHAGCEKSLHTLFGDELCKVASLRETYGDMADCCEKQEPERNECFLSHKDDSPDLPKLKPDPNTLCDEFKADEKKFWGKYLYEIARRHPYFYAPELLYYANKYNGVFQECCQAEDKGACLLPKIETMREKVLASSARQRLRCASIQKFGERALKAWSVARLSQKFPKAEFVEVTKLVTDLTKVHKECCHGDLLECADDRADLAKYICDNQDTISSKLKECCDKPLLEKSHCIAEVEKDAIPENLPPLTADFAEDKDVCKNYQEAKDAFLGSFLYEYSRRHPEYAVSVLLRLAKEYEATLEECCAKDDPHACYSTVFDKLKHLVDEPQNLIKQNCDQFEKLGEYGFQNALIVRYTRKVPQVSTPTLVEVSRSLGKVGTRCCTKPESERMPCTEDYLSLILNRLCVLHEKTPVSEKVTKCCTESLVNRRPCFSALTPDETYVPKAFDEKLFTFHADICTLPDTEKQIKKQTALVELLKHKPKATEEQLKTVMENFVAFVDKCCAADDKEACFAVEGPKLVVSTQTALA
T4 sequence (P02769 25-607): as above
Chain of albumin (BSA) (P02769 25-607): as above

SMILES | amount of cannabinoids dissolved in ethanol, Smoke [1] [micrograms/ml] | amount of cannabinoids dissolved in ethanol, Vapor [1] [micrograms/ml] | percentage of each cannabinoid relative to total cannabinoids adsorbed to protein, Bovine γ-globulin [2] [percentage] | percentage of each cannabinoid relative to total cannabinoids adsorbed to protein, Rice recombinant HSA [3] [percentage] | percentage of each cannabinoid relative to total cannabinoids adsorbed to protein, Ovalbumin [4] [percentage] | active cannabinoids found by HPLC in BSA aqueous solution after cannabis smoke was introduced [5] | percentage of each cannabinoid relative to total cannabinoids adsorbed to protein, Adsorbed to BSA after extract combined with BSA solution [6] [percentage] | relative concentration of cannabinoids (relative to total cannabinoid content), Smoke passed through BSA/water/ethanol [7, 11] | relative concentration of cannabinoids (relative to total cannabinoid content), Vapor passed through BSA/water/ethanol [7, 11] | relative concentration of cannabinoids (relative to total cannabinoid content), Smoke passed through BSA/water/ethanol ([7]; strain of cannabis high in THC) | protein-bound cannabinoid quantified, Smoke [8] | protein-bound cannabinoid quantified, Vapor [8] | percentage of each cannabinoid relative to total cannabinoids, Extract [9] [percentage] | relative concentration of cannabinoids (relative to total cannabinoid content), Smoke passed through ethanol [10, 11] | relative concentration of cannabinoids (relative to total cannabinoid content), Vapor passed through ethanol [10, 11] | relative concentration of cannabinoids (relative to total cannabinoid content), Smoke passed through ethanol ([10]; strain of cannabis high in THC) | relative concentration of cannabinoids (relative to total cannabinoid content), Vapor passed through ethanol ([10]; strain of cannabis high in THC)
CCCCCc1cc2c(c(O)c1C(=O)O)[C@@H]1C=C(C)CC[C@H]1C(C)(C)O2 [THCA, tetrahydrocannabinoic acid] | 83.765 | 72.8432 | 100 | 0 | 0 | dissolved in the solution | 29 | 5.3 percent (weight/weight) | 0.0 percent (weight/weight) | 9.3 percent (weight/weight) | 2.16 | 4.26 | 22 | 0.7 percent (weight/weight) | 0.3 percent (weight/weight) | 0.9 percent (weight/weight) | 1.1 percent (weight/weight)
CCCCCc1cc(O)c2c(c1)OC(C)(CCC=C(C)C)C=C2 (centres unmarked) [CBC, cannabichromene] | 90.873 | 54.7468 | 0 | 0 | – | dissolved in the solution | 3 | 0.0 percent (weight/weight) | – | 0.0 percent (weight/weight) | 2.13 | 1.845 | 1 | 3.1 percent (weight/weight) | 3.8 percent (weight/weight) | 1.3 percent (weight/weight) | 0.0 percent (weight/weight)
CCCCCc1cc(O)c(C/C=C(\C)CCC=C(C)C)c(O)c1 [CBG, cannabigerol] | 292.063 | 183.6224 | 0 | 0 | 0 | – | 1 | 0.0 percent (weight/weight) | 0.0 percent (weight/weight) | 21.0 percent (weight/weight) | 5.9 | 11.685 | 3 | 4.2 percent (weight/weight) | 1.5 percent (weight/weight) | 4.9 percent (weight/weight) | 1.2 percent (weight/weight)
CCCCCc1cc(O)c2c(c1)OC(C)(C)c1ccc(C)cc1-2 [CBN, cannabinol] | 276.856 | 135.5254 | 0 | 0 | 0 | dissolved in the solution | 2 | 0.0 percent (weight/weight) | 0.0 percent (weight/weight) | 0.0 percent (weight/weight) | 6.5 | 4.855 | 2 | 1.6 percent (weight/weight) | 0.0 percent (weight/weight) | 1.7 percent (weight/weight) | 1.6 percent (weight/weight)

— patent US12161723B2, “Water-based cannabinoid and opioid compositions” (DAY THREE LABS MAN[…]., priority 2014, dated 2024)
